Molecular target: Coagulation factor XI (Homo sapiens, UniProt P03951)
Assay: In Vitro Inhibitory Effect of the Compounds of the Present Invention on the Enzymatic Activity of Blood-Coagulation Factor XIa: The following method was used to test the in vitro inhibitory effect of the compounds of the present invention on the activity of human blood-coagulation factor XIa, expressed by the Inhibition constant Ki.Solution preparation: reaction buffer: 0.03M HEPES acid, 0.145M NaCl, 0.005 M KCl, 0.1% PEG-8000, pH=7.5;HEPES 8.499 g, NaCl 8.47 g, KCl 0.3725, PEG 8000 1 g, plus ddH2O 800 ml; the pH was adjusted to 7.4 with HCl, and the volume was metered to 1 L.S2366 substrate stock solution (2 mM): a volume of substrate ([…]) was dissolved in 23 ml sterile deionized water, aliquoted, and stored at 4° C. in darkness.S2366 substrate working solution: the stock solution was diluted by 4 folds with the reaction buffer before use.FXIa working solution: 1 μl FXIa stock solution was added to 10 ml reaction buffer and thoroughly mixed before use.Method: 15 μl test sample working solution (15 μl DMSO for the control group) and 75 μl FXIa working solution were added to a 96-well plate, and incubated at room temperature for 15 min. Then 60 μl S2366 substrate working solution was added to initiate the reaction. […]

Coagulation factor XI, sequence (P03951 19-387 limits assumed): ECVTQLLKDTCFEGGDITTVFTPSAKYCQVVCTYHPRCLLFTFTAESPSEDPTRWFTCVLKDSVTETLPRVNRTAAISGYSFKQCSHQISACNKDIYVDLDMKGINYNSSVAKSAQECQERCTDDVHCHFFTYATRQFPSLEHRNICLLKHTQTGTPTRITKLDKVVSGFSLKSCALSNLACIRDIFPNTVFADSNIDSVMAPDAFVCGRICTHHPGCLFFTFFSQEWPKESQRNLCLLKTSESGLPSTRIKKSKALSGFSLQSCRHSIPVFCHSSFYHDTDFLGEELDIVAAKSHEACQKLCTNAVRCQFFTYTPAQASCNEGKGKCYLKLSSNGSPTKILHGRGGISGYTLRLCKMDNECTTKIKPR
Coagulation factor XI, sequence (P03951 388-625 limits assumed): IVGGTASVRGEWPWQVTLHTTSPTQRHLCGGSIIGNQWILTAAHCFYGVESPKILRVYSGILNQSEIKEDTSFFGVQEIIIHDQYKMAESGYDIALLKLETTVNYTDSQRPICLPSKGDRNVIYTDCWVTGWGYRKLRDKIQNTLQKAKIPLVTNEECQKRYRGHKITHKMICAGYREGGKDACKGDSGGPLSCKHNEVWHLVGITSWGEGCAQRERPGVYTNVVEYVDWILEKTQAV

For `COC(=O)Nc1ccc(NC(=O)C2CCc3cc(-c4cc(Cl)ccc4-n4cnnn4)cc(=O)n32)cc1` (stereo unspecified), which Ki is on record?
Its Ki is 344 nM.

Reference: ChEMBL document CHEMBL5726156, “Pyridone or pyrimidone derivative, preparation method therefor and application thereof” (2019)
